The subject of test [1] is T. brucei brucei laboratory strain TC 221. In words: Trypanosome assay (in vitro cytotoxicity, Alamar Blue). The format is cell-based, Trypanosoma brucei brucei. Particulars: for activity against trypanosomes (in words): statement of the discussion. The method, then: Parasite culture: Trypomastigote forms of T. brucei brucei laboratory strain TC 221 were cultured in Baltz medium according to standard conditions.^36 In vitro cytotoxicity assays: The test compounds were dissolved in DMSO or 0.1 M NaOH. A defined number of parasites (10^4 trypanosomes per mL) were exposed in test chambers of 96-well plates to various concentrations of the test substances in a final volume of 200 µl. Positive (trypanosomes in culture medium) and negative controls (test substance without trypanosomes) were run with each plate. The plates were then incubated at 37°C in an atmosphere of 5 % CO2 for a total time period of 72 h. […] The effect of test substances was quantified in ED50 values by linear interpolation^18 of three different measurements. The activity of the test substances was measured by light absorption in an MR 700 Microplate Reader at a wavelength of 550 nm with a reference wave length of 630 nm, using the Alamar Blue®.

Test [2] concerns macrophage cell line J774.1. Kind of test: Macrophage assay (Alamar Blue cytotoxicity). The format is cell-based. The conditions noted are these: for EC50: J774.1 macrophages, after 48h, read-out: ED50 [µM] Macrophage after 48h. The procedure:
The macrophage cell line J774.1 was maintained in complete Click RPMI medium. For the experimental procedures cells were detached from the flasks with a rubber police, washed twice with PBS and suspended at 2 x 10^6 cells mL^-1 in complete Click RPMI medium. […] Following the addition of 20 µl of Alamar Blue, the plates were further incubated at similar conditions. The plates were then read 24 and 48 h later. Control experiments to examine the effect of cell density, incubation time and DMSO concentration were performed. Absorbance in the absence of compounds was set as 100 % of growth control.

Setting [3] is: Trypanosoma brucei, strain TC 221, 10^4 trypanosomes per mL, incubated 72 h, reading at 48 h, Alamar Blue, read-out: ED50 [µM] T. brucei brucei.
[4] abbreviates: strain TC 221, 10^4 trypanosomes per mL, incubated 72 h, reading at 48 h, Alamar Blue, read-out: ED50 [µM] T. brucei brucei.
The mark [5] stands for this setting: reference substances, for comparison (title of Table 1), read-out: ED50 (T. brucei brucei).

Structures are written as SMILES. Where two headings read alike, the source gives them in different places.

Regarding `ON=C1CCN(CCCc2ccccc2)CC1` [Compound 48, 1-(3-Phenylpropyl)-4-piperidine oxime], the “activity against trypanosomes (in words)” value in test [1] is “neither the oximes 48 and 52 nor the oxime ether 49 are active against trypanosomes”.

As to `C=CCN1[C@H](c2ccccn2)C(C(=O)OC)C(=O)C(C(=O)OC)[C@@H]1c1ccccn1` (stereo partly drawn) [Compound 2, Dimethyl (2R,6S)-1-allyl-4-oxo-2,6-di(pyridin-2-yl)piperidine-3,5-dicarboxylate], the EC50 is 26.5 ± 7.64 µM in test [1] (setting [3]) and more than 100 µM in test [2] (Mus musculus).

`CC(CN1CCC(=NOCc2c(Cl)cccc2Cl)CC1)c1ccccc1` (stereo not shown) [Compound 49, 1-(2-Phenylpropyl)-4-oxo-piperidine O-(2,6-dichloro-benzyl)-oxime]: the EC50 in test [1] (setting [3]) and in test [2] (Mus musculus) was more than 100 µM throughout. The “activity against trypanosomes (in words)” value in test [1] is “neither the oximes 48 and 52 nor the oxime ether 49 are active against trypanosomes”.

With `COC(=O)C1C(=O)C(C(=O)OC)[C@H](c2ccccn2)N(CCOCCO)[C@@H]1c1ccccn1` (stereo partly drawn) [Compound 5, Dimethyl (2R,6S)-1-[2-(2-hydroxyethoxy)ethyl]-4-oxo-2,6-di(pyridin-2-yl)piperidine-3,5-dicarboxylate], the EC50 in test [1] (setting [3]) stood at 24.1 ± 4.27 µM; in test [2] (Mus musculus) it was 38.5 ± 6.17 µM.

Consider `COC(=O)C1C(=O)C(C(=O)OC)[C@H](c2cccc([N+](=O)[O-])c2)N(Cc2ccccc2)[C@@H]1c1cccc([N+](=O)[O-])c1` (stereo partly drawn) [Compound 17, Dimethyl (2R,6S)-1-benzyl-2,6-bis(3-nitrophenyl)-4-oxopiperidine-3,5-dicarboxylate], for which the EC50 in test [1] (setting [3]) was 2.49 ± 0.79 µM; in test [2] (Mus musculus) it was more than 100 µM.

With `ON=CC1CCN(CCCc2ccccc2)CC1` [Compound 52, 1-1-(3-Phenyl-propyl)-piperidine-4-carbaldehyde oxime], in test [1], the “activity against trypanosomes (in words)” value was “neither the oximes 48 and 52 nor the oxime ether 49 are active against trypanosomes”. Also, the EC50 in test [1] (setting [4]) and in test [2] was more than 100 µM in each case.

As to `N=C(N)c1ccc(OCCCCCOc2ccc(C(=N)N)cc2)cc1` [Pentamidine diisothionate, reference compound], the EC50 in test [1] (setting [5]) amounted to 0.0027 µM.

In the case of `COC(=O)C1C(=O)C(C(=O)OC)[C@H](c2ccccn2)N(Cc2ccccc2)[C@@H]1c1ccccn1` (stereo partly drawn) [Compound 9, Dimethyl (2R,6S)-1-benzyl-4-oxo-2,6-di(pyridin-2-yl)piperidine-3,5-dicarboxylate], the figures for the EC50 in test [1] (setting [3]) and in test [2] (Mus musculus) were 11.1 ± 1.91 µM and 34 ± 1.56 µM, respectively.

As for `NCCCC(N)(C(=O)O)C(F)F` (stereo not shown) [Eflornitine, reference compound], in test [1] (setting [5]), the EC50 is 22.9 µM.

For `Cc1ccc(C(=O)Nc2ccc(S(=O)(=O)O)c3cc(S(=O)(=O)O)cc(S(=O)(=O)O)c23)cc1NC(=O)c1cccc(NC(=O)Nc2cccc(C(=O)Nc3cc(C(=O)Nc4ccc(S(=O)(=O)O)c5cc(S(=O)(=O)O)cc(S(=O)(=O)O)c45)ccc3C)c2)c1` [Suramine, reference compound], the EC50 in test [1] (Trypanosoma brucei, reference substances, for comparison (title of Table 1), read-out: ED50 (T. brucei brucei)) stood at 0.3 µM.

Take `C=CCN1[C@@H](c2ccc([N+](=O)[O-])cc2)C(C(=O)OC)=C(O)C(C(=O)OC)[C@@H]1c1ccc([N+](=O)[O-])cc1` (stereo partly drawn) [Compound 10, Dimethyl (2R,6S)-1-allyl-4-hydroxy-2,6-bis(4-nitrophenyl)-1,2,3,6-tetrahydropyridine-3,5-dicarboxylate]: the EC50 in test [1] (setting [3]) was 2.41 ± 0.39 µM; in test [2] (Mus musculus) it was 50.3 ± 11.7 µM.

For `COC(=O)C1C(=O)C(C(=O)OC)[C@H](c2ccccn2)N(CC(C)O)[C@@H]1c1ccccn1` (stereo partly drawn) [Compound 4, Dimethyl (2R,6S)-1-(2-hydroxypropyl)-4-oxo-2,6-di(pyridin-2-yl)piperidine-3,5-dicarboxylate], the EC50 in test [1] (setting [3]) was 18.3 ± 2.59 µM; in test [2] (Mus musculus), 32 ± 0.63 µM.

For `COC(=O)C1C(=O)C(C(=O)OC)[C@H](c2ccccn2)N(CCCC(=O)O)[C@@H]1c1ccccn1` (stereo partly drawn) [Compound 6, 4-[(2R,6S)-3,5-bis(methoxycarbonyl)-4-oxo-2,6-di(pyridin-2-yl)piperldin-1-yl]butanoic acid], the EC50 in test [1] (setting [4]) came to 19.3 ± 2.28 µM; in test [2], 46 ± 5.92 µM.

In the case of `COC(=O)C1C(=O)C(C(=O)OC)[C@H](c2ccccn2)N[C@@H]1c1ccccn1` (stereo partly drawn) [Compound 1, Dimethyl (2R,6S)-4-oxo-2,6-di(pyridin-2-yl)piperidine-3,5-dicarboxylate], the values for the EC50 in test [1] (setting [3]) and in test [2] (Mus musculus) were 28.1 ± 1.52 µM and more than 100 µM, respectively.

As to `COC(=O)C1C(=O)C(C(=O)OC)[C@H](c2ccccn2)N(CCO)[C@@H]1c1ccccn1` (stereo partly drawn) [Compound 3, Dimethyl (2R,6S)-1-(2-hydroxyethyl)-4-oxo-2,6-di(pyridin-2-yl)piperidine-3,5-dicarboxylate], the EC50 in test [1] (setting [3]) amounted to 22.8 ± 5.57 µM; in test [2] (Mus musculus), 31.15 ± 0.14 µM.

For the compound `COC(=O)C1=C(O)C[C@@H](c2ccccn2)N(Cc2cccc(OC)c2)[C@H]1c1ccccn1` [Compound 23, Methyl (2'R,6'S)-4'-hydroxy-1'-(3-methoxybenzyl)-1',2',5',6'-tetrahydro-2,2';6',2''-terpyridine-3'-carboxylate], the EC50 in test [1] (setting [3]) and in test [2] (Mus musculus) was more than 100 µM throughout.

On to `COC(=O)C1=C(O)C[C@@H](c2ccccn2)N(Cc2ccc(C)cc2)[C@H]1c1ccccn1` [Compound 20, Methyl (2'R,6'S)-4'-hydroxy-1'-(4-methylbenzyl)-1',2',5',6'-tetrahydro-2,2';6',2''-terpyridine-3'-carboxylate], for which the figures for the EC50 in test [1] (setting [3]) and in test [2] (Mus musculus) were 0.47 ± 0.17 µM and 34.9 ± 0.45 µM, respectively.

As to `C[C@@H]1[C@H](O)[C@@H](C)/C=C/C=C/C=C/C=C/C=C/C=C/C=C/[C@H](O[C@@H]2O[C@H](C)[C@@H](O)[C@H](N)[C@@H]2O)C[C@@H]2O[C@](O)(C[C@@H](O)C[C@@H](O)[C@H](O)CC[C@@H](O)C[C@@H](O)CC(=O)O[C@H]1C)C[C@H](O)[C@H]2C(=O)O` [Amphotericin B, reference compound], the half-maximal inhibitory concentration (IC50) in test [2] (reference substance, for comparison, read-out: IC50 (J774.1 Macrophages)) was found to be 68.6 ± 16.5 µM.

In the case of `COC(=O)C1C(=O)C(C(=O)OC)[C@H](c2cccc([N+](=O)[O-])c2)N(Cc2ccc(Cl)cc2)[C@@H]1c1cccc([N+](=O)[O-])c1` (stereo partly drawn) [Compound 14, Dimethyl (2R,6S)-1-(4-chlorobenzyl)-2,6-bis(3-nitrophenyl)-4-oxopiperidine-3,5-dicarboxylate], the EC50 in test [1] (setting [3]) was 10.6 ± 2.83 µM; in test [2] (Mus musculus), 46.6 ± 9.86 µM.

In the case of `COC(=O)C1C(=O)C(C(=O)OC)[C@H](c2ccccn2)N(Cc2ccccn2)[C@@H]1c1ccccn1` (stereo partly drawn) [Compound 8, Dimethyl (2R,6S)-4-oxo-2,6-di(pyridine-2-yl)-1-(pyridine-2-yl-methyl)-piperidine-3,5-diearboxylate], the EC50 in test [1] (setting [4]) amounted to 4.62 ± 1.39 µM; in test [2], 29.9 ± 2.32 µM.

On to `COC(=O)C1C(=O)C(C(=O)OC)[C@H](c2cccc([N+](=O)[O-])c2)N(Cc2ccc(C)cc2)[C@@H]1c1cccc([N+](=O)[O-])c1` (stereo partly drawn) [Compound 16, Dimethyl (2R,6S)-1-(4-methylbenzyl)-2,6-bis(3-nitrophenyl)-4-oxopiperidine 3,5-dicarboxylate], for which the results for the EC50 in test [1] (setting [3]) and in test [2] (Mus musculus) were 2.66 ± 0.49 µM and 49.8 ± 16.8 µM, respectively.

For `COC(=O)C1=C(O)C[C@@H](c2ccccn2)N(Cc2ccccc2)[C@H]1c1ccccn1` [Compound 19, Methyl (2'R,6'S)-1'-benzyl-4'-hydroxy-1',2',5',6'-tetrahydro-2,2';6',2''-terpyridine-3'-carboxylate], the EC50 came out at 1.37 ± 0.02 µM in test [1] (setting [3]) and 33.2 ± 0.69 µM in test [2] (Mus musculus).

Turning to `COC(=O)C1=C(O)C[C@@H](c2ccccn2)N(Cc2ccc(OC)cc2)[C@H]1c1ccccn1` [Compound 22, Methyl (2'R,6'S)-4'-hydroxy-1'-(4-methoxybenzyl)-1',2',5',6'-tetrahydro-2,2';6',2''-terpyridine-3'-carboxylate], the EC50 amounted to 0.43 ± 0.17 µM in test [1] (setting [3]) and 29.9 ± 0.33 µM in test [2] (Mus musculus).

Consider `COC(=O)C1C(=O)C(C(=O)OC)[C@H](c2cccc([N+](=O)[O-])c2)N(Cc2ccc(OC)cc2)[C@@H]1c1cccc([N+](=O)[O-])c1` (stereo partly drawn) [Compound 15, Dimethyl (2R,6S)-1-(4-methoxybenzyl)-2,6-bis(3-nitrophenyl)-4-oxopiperidine-3,5-dicarboxylate], for which the EC50 was 3.93 ± 1.1 µM in test [1] (setting [3]) and more than 100 µM in test [2] (Mus musculus).

With `COC(=O)C1C(=O)C(C(=O)OC)[C@H](c2ccccn2)N(CCCCCCCC(=O)O)[C@@H]1c1ccccn1` (stereo partly drawn) [Compound 7, 8-[(2R,6S)-3,5-bis(methoxycarbonyl)-4-oxo-2,6-di(pyridin-2-yl)piperidin-1-yl]octanoic acid], the EC50 was 24 ± 4.48 µM in test [1] (setting [3]) and 33.8 ± 2.81 µM in test [2] (Mus musculus).

On to `C=CCN1[C@H](c2ccccc2)C(C(=O)OC)C(=O)C(C(=O)OC)[C@@H]1c1ccccc1` (stereo partly drawn) [Compound 18, Dimethyl (2R,6S)-1-allyl-4-oxo-2,6-diphenylpiperidine-3,5-dicarboxylate], for which the EC50 in test [1] (setting [3]) is 4.86 ± 0.63 µM; in test [2] (Mus musculus) it was more than 100 µM.
